Laboratory results as given in patent publication US20090087431A1, “METHODS OF TREATING BONE DISORDERS WITH MODULATORS OF AXL” (Wyeth, priority 2007, published 2009).

Tests used:
Clone 14 cells = test: Osteocalcin mRNA after siRNA transfection, osteoblast differentiation; type: cell-based, murine; settings: all tested conditions (with and without BMP2), p<0.05
Protocol: The role of Axl in osteoblast differentiation from an osteoprogenitor cell was investigated using RNA interference in the murine Clone 14 cell line. In these experiments, siRNA reagents against murine Axl were transfected into cells treated with either 0 ng/ml or 100 ng/ml BMP2. The induction of osteocalcin gene expression, an established osteoblast marker, was measured to assess osteoblast differentiation 4 days after the onset of treatment and transfection.
Clone 14 cells were seeded at 20,000 cells/well in a 96-well plate and cultured in DMEM media supplemented with 10% fetal bovine serum (FBS) and 1% L-glutamine. The following day, cells were transfected for 4 hours with siRNA at a final concentration of 20 nM using 0.5% (final) Lipofectamine2000 (Invitrogen, Carlsbad, Calif.). Cells were then cultured in DMEM supplemented with 1% FBS and 1% penicillin/streptomycin. […]
To assess the consequence of Axl knockdown on osteoblast differentiation, osteocalcin mRNA levels were monitored. […]
An additional negative control was the same non-specific, scrambled siRNA described above (NSP). Osteocalcin mRNA levels were monitored by real-time RT-PCR as above using the primers set forth in SEQ ID NO:9, SEQ ID NO:10, and SEQ ID NO:11 and shown below:
Osteocalcin mRNA levels are shown relative to those monitored in cells transfected with a scrambled, non-specific siRNA (NSP). […]

MC3T3-E1 cells = test: Formation of mineralized nodules, Alizarin red staining; type: cell-based, murine; settings: 20 nM siRNA, Day 17 post-transfection, vs scrambled siRNA or mock
Protocol: MC3T3-E1 cells were seeded at a density of 50,000 cells/well of a 6-well plate and cultured in Alpha media supplemented with 1% glutamine and 10% FBS. The following day the cells were transfected with 20 nM (final concentration) siRNA using 0.4% (final) Oligofectamine (Invitrogen) for 4 hours. The siRNAs used in this study include the pool of Axl siRNAs and the Cbfa1/Runx2 siRNA described above. In addition two control treatments were included: a mock transfection where no siRNA was introduced and a non-specific, scrambled siRNA (as described).
Following transfection, the cells were maintained in Alpha media supplemented with 1% glutamine, 10% FBS and 10 mM β-glycerophosphate, a cofactor necessary for mineralization, with no other osteogenic agents. […]
To determine mineralization, cells were washed in PBS, fixed in cold ethanol and stained with Alizarin red using standard protocols. Semi-quantification of the extent of mineralization was conducted by de-staining the cells in 10% Cetylpyridinium chloride in 10 mM sodium phosphate for 15 minutes at room temperature. Supernatants were removed and absorbance at 570 nm measured. Concentrations were determined by obtaining absorbance measurements of a standard curve of known dilutions of Alizarin red (range from 50-400 uM). Mineralization was visually assessed by the presence of red-stained nodules.

## Runx2/Cbfa1: siRNA against Runx2/Cbfa1, 5′-CGUGAAUGGUCAUAAUAACU-3′; negative control (listed as RNA, chemistry not given here)
Clone 14 cells
  osteoblast differentiation as monitored by osteocalcin mRNA expression: dramatically repressed
MC3T3-E1 cells
  extent of mineralization (visual, Alizarin red): dramatic reduction
